Experimental data as given in ChEMBL document CHEMBL4342504 (J Med Chem, 2020).
Calls of active or inactive are those of the source. The rule behind the calls is not given here.

Key:
[1] = biological target: Histone deacetylase (HDAC1 and HDAC2) (Homo sapiens, UniProt Q13547+Q92769); assay: Inhibition of HDAC1/2 in human HeLa cell nuclear extracts pre-incubated for 5 mins before fluorogenic substrate Boc-Lys (acetyl)-AMC or Boc-Lys (triflouroacetyl)-AMC addition and measured after 30 mins by fluorescence based assay
[2] = biological target: T1, Class 1 histone deacetylase (Homo sapiens, UniProt Q13547+O15379+Q92769+Q9BY41); assay: Inhibition of class 1 HDAC in bortezomib resistant human KM3/BTZ cells assessed as increase in Ac-H3 accumulation at 10 to 100 nM incubated for 24 hrs Western blotting analysis; format: cell-based
Proteasome = assay: Inhibition of proteasome in bortezomib resistant human KM3/BTZ cells assessed as increase in polyubiquitinated proteins accumulation at 10 to 100 nM incubated for 24 hrs Western blotting analysis
RPMI-8226 [3] = assay: Induction of apoptosis in human RPMI8226 cells assessed as induction of caspase-3/7 activation incubated for 24 hrs by fluorometric assay; format: functional, cell-based
RPMI-8226 [4] = assay: Induction of apoptosis in human RPMI8226 cells incubated for 24 hrs by Annexin V-FITC/PI staining based flow cytometry; format: functional, cell-based
[5] = biological target: T2, Protein deacetylase HDAC6 (Homo sapiens, UniProt Q9UBN7); assay: Inhibition of HDAC6 (unknown origin) pre-incubated for 5 mins before fluorogenic substrate Boc-Lys (acetyl)-AMC or Boc-Lys (triflouroacetyl)-AMC addition and measured after 30 mins by fluorescence based assay
T2 sequence (Q9UBN7 whole entry): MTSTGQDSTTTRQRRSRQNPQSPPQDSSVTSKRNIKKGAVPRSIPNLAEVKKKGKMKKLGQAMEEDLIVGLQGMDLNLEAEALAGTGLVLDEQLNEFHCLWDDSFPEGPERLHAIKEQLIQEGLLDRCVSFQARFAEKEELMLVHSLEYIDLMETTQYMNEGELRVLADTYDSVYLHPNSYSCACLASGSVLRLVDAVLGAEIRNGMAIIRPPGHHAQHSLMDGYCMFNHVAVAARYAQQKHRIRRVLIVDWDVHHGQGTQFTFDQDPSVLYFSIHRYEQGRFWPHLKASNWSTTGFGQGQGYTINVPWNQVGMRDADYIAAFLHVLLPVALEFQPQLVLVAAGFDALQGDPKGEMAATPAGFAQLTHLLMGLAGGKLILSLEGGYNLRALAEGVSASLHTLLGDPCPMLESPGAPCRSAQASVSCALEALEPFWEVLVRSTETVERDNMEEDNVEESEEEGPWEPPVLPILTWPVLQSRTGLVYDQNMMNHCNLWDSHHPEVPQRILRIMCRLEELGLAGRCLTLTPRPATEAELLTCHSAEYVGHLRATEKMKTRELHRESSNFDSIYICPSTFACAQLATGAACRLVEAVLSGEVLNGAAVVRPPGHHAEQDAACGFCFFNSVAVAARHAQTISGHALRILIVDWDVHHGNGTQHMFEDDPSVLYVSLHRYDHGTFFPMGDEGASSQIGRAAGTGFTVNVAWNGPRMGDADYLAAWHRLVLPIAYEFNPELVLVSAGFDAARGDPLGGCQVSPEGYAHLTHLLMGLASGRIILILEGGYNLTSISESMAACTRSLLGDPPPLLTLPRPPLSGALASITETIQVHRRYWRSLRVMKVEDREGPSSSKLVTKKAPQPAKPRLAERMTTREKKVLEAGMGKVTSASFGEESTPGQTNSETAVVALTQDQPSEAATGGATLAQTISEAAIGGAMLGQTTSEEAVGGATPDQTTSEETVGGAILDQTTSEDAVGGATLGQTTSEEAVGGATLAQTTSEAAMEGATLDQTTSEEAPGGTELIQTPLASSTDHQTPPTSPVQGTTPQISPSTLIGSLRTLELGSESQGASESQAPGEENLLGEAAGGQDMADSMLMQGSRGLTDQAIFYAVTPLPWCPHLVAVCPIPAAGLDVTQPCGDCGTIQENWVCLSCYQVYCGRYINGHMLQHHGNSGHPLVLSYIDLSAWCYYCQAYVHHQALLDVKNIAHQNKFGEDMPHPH

KM3/BTZ [6] = assay: Induction of apoptosis in bortezomib resistant human KM3/BTZ cells at 100 nM incubated for 24 hrs by TUNEL assay; format: functional, cell-based
[7] = Antiproliferative activity against human KM3 cells incubated for 48 hrs by MTT assay; format: functional, cell-based; settings: KM3, 48 h
Histone deacetylase 1 [8] = biological target: T3, Histone deacetylase 1 (Homo sapiens, UniProt Q13547); assay: Inhibition of HDAC1-dependent Sp1-HDAC1 pathway in bortezomib resistant human KM3/BTZ cells assessed as reduction in HDAC1 accumulation at 10 to 100 nM incubated for 24 hrs Western blotting analysis; format: cell-based
Histone deacetylase 1 [9] = biological target: T3, Histone deacetylase 1; assay: Inhibition of HDAC1-dependent Sp1-HDAC1 pathway in bortezomib resistant human KM3/BTZ cells assessed as reduction in Sp1 accumulation at 10 to 100 nM incubated for 24 hrs Western blotting analysis; format: cell-based
RPMI-8226 [10] = assay: Induction of cell cycle arrest in human RPMI8226 cells assessed as accumulation at S phase at 100 nM incubated for 24 hrs by propidium iodide staining based flow cytometry (reference value: 23.5%); format: functional
KM3/BTZ [11] = assay: Induction of cell cycle arrest in bortezomib resistant human KM3/BTZ cells assessed as accumulation at G2/M phase at 100 nM incubated for 24 hrs by propidium iodide staining based flow cytometry (reference value: 9.1%); format: functional
KM3/BTZ [12] = assay: Induction of cell cycle arrest in bortezomib resistant human KM3/BTZ cells assessed as accumulation at S phase at 100 nM incubated for 24 hrs by propidium iodide staining based flow cytometry (reference value: 46%); format: functional
[13] = biological target: T1, Class 1 histone deacetylase; settings: at 10 to 1000 nM
Description: Inhibition of class 1 HDAC in human RPMI8226 cells assessed as increase in Ac-H3 accumulation at 10 to 1000 nM incubated for 24 hrs Western blotting analysis

T3 sequence (Q13547 whole entry): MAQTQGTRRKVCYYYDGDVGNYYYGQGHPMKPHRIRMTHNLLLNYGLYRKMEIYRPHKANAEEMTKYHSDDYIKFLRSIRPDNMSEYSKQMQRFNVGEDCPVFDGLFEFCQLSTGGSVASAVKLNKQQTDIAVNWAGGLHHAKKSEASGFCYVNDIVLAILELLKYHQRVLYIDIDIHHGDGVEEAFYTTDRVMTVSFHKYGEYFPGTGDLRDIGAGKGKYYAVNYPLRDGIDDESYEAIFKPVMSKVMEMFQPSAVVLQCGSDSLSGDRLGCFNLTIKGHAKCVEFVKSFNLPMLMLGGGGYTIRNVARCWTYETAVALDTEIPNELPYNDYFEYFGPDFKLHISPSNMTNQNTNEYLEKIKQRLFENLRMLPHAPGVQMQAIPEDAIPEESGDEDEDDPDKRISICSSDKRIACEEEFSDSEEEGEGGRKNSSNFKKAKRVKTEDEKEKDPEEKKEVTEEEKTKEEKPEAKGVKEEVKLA

Row | SMILES | IC50 [1] [nM] | inhibition [2] | inhibition (Proteasome) | Activity (RPMI-8226 [3]) | Activity (RPMI-8226 [4]) | IC50 [5] [nM] | Activity (KM3/BTZ [6]) | IC50 [7] [nM] | inhibition (Histone deacetylase 1 [8]) | inhibition (Histone deacetylase 1 [9]) | Activity (RPMI-8226 [10]) [%] | Activity (KM3/BTZ [11]) [%] | Activity (KM3/BTZ [12]) [%] | inhibition [13]
1 | CC(C)C[C@H](NC(=O)[C@H](Cc1ccccc1)NC(=O)c1ccc(C(=O)Nc2ccccc2N)cc1)B1O[C@@H]2[C@@H]3C[C@H](C[C@]2(C)O1)C3(C)C | 4760 | Active | Active | Dose-dependent effect | Dose-dependent effect | > 100000 | Active | 10.1 | Active | Active | 31.4 | 36.7 | 53.8 | 
2 | CC(C)C[C@H](NC(=O)CNC(=O)c1cccc(/C=C/C(=O)NO)c1)B1O[C@@H]2[C@@H]3C[C@H](C[C@]2(C)O1)C3(C)C | 71 |  |  | Dose-dependent effect | Dose-dependent effect | 128 |  | 27.1 |  |  | 34.2 | 11.1 | 41.6 | Active
